Test results: article PMC13198257, “An aerosolized dual-action autotaxin inhibitor-PPARγ agonist for the treatment of pulmonary fibrosis” (Cell Reports Medicine, 2026)

What was measured:
hERG = hERG (Homo sapiens, UniProt Q12809); assay: hERG inhibition; assay type: biochemical
NHLFs [1] = assay: Mitotracker assay in NHLFs; assay type: cell-based, human; conditions: 25 μM, TGFβ 10 ng/mL, 24 h
Protocol: NHLFs were plated at a density of 1,2 × 10^4 cells/well of a 96-well plate. The next day TGFβ (10 ng/mL) and EL244 (25 μM) or vehicle (DMSO) were added to the respective wells and incubated for 24 h. Medium was replaced with DMEM without phenol red that contained LumiTracker Mito Red CMXRos at 25 nM and a 30 min incubation followed. Medium was replaced with fresh DMEM without phenol red and without Lumitracker. Fluorescence was measured (excitation at 580 nm and reading at 600 nm) with a Tecan M200 Fluorimeter and normalized with cell number per well as measured with a Tecan Cyto Spark after cell fixation with PFA at a final concentration of 2%.

3T3-L1 = assay: Differentiation of 3T3-L1 fibroblasts into adipocytes; assay type: cell-based
Protocol: Adipogenic differentiation was carried out following a well-established protocol.[63]^,[142] Upon reaching approximately 70% confluence, cells were induced to differentiate (day 0) by replacing the culture medium with complete DMEM containing 10μg/mL insulin. Experimental groups received either EL244 (1μM or 10μΜ) or the standard adipogenic induction cocktail consisting of 1μM dexamethasone (DEX) and 0.5mM 3-isobutyl-1-methylxanthine (IBMX), as indicated. On day 3, the medium was replaced with complete DMEM supplemented with 10μg/mL insulin, with continued exposure to EL244 (1μM or 10μM) in the respective treatment groups. On day 6, the medium was refreshed with complete DMEM containing the corresponding concentrations of EL244.
Differentiated adipocytes were fixed with 10% formalin solution for 2 h, washed with 60% isopropanol, and stained with filtered 0.3% (w/v) Oil red O solution for 20 min. Following staining, cells were washed three times with dH2O to remove excess dye and observed using a bright-field microscope. Fow quantification, cells were destained with 100% isopropanol and lipid accumulation levels were quantified by Oil red O absorption at 500nm.

NHLFs [2] = assay: TGF-β-induced normal human lung fibroblasts (NHLFs): fibrotic markers and PPARγ target genes; assay type: cell-based; conditions: 75 μΜ, TGFβ 10 ng/ml
Protocol: Normal human lung fibroblasts (NHLFs), clone 832, were isolated from the adjacent healthy tissue of a patient undergoing open lung surgery for cancer at the Department of Pulmonology, Bichat-Claude Bernard Hospital, Paris/France; studies were approved by the Committee for Personal Protection (CPP)—Ile de France 1 (#0911932). The patient provided written consent to the use of his/her sample for research purposes; no compensation was provided. NHLFs were cultured in DMEM supplemented with 10% FBS, 1% penicillin/streptomycin, and 0.1% amphotericin B at 37 °C, 5% CO2 and ≥95% relative humidity.
For experiments, NHLFs were seeded in 6-well plates at a density of 2 × 10^5 cells per well. After overnight serum starvation, cells were pre-treated with EL244 or vehicle (concentrations specified in the corresponding figures) for 1 h, followed by stimulation with TGFβ (10 ng/mL) for 24 h.
Cells were washed twice with ice-cold 1× PBS and lysed in RIPA buffer containing 50 mM Tris-HCl (pH 7.4), 1 mM EDTA, 150 mM NaCl, 0.25% (w/v) sodium deoxycholate, 1% (v/v) Triton X-100, 0.1% (w/v) SDS and 1 mM PMSF. Equal amounts of protein extracts (30 μg) were separated into 10% SDS-PAGE gels and subsequently electro-transferred onto nitrocellulose membranes. Membranes were blocked for 1 h at room temperature in 1X TBS-T containing 5% non-fat dry milk. […] Immunoreactive protein bands were detected using ECL.

liver = assay: Serum ALT/AST after 2 weeks of inhaled EL244; assay type: in vivo, mice; conditions: 2 weeks inhaled 15 mg/kg o.d.
Protocol: Figure S7. Inhaled prophylactic EL244 administration attenuates BLM-induced pulmonary fibrosis. Related to […]
EL244 was administered via inhalation at 15 mg/kg, once daily, from one day before to 14 days after bleomycin (BLM) administration (day 0). The compound was dissolved in 15% Kolliphor in saline. The vehicle (15% Kolliphor in saline) was administered to both the SAL and BLM control groups.
(A) Weight change in the different mouse groups during the 2 weeks of the pulmonary fibrosis experiment.
(B-D) Respiratory mechanics assessed using the FlexiVent system (n=6,8,7). Parameters include mean static lung compliance (B), mean respiratory system compliance (C) and mean total lung capacity (D).
(E) Total protein concentration in BALFs, as determined with the Bradford assay (n=6,8,7).
(F) Inflammatory cell numbers in BALFs, as counted with a hematocytometer (n=6,8,7).
(G) Soluble collagen levels in the BALFs were detected with the direct red assay (n=6,8,7). […]
(J) Quantification of fibrosis severity in H&E-stained lung sections via Ashcroft scoring (n=6,8,7). […]
Following normality testing, statistical significance was assessed with one-way ANOVA and post-hoc Tukey’s test (B, C, D, E, K/ALT, K/ALT/AST) or Welch ANOVA and post-hoc Games-Howell test (F, G, H, J) or Kruskal Wallis and post-hoc Dunn’s test (K/AST); */**/***/**** denote p<0.05/0.01/0.001/0.0001, respectively.

Sequence of hERG (Q12809 whole entry): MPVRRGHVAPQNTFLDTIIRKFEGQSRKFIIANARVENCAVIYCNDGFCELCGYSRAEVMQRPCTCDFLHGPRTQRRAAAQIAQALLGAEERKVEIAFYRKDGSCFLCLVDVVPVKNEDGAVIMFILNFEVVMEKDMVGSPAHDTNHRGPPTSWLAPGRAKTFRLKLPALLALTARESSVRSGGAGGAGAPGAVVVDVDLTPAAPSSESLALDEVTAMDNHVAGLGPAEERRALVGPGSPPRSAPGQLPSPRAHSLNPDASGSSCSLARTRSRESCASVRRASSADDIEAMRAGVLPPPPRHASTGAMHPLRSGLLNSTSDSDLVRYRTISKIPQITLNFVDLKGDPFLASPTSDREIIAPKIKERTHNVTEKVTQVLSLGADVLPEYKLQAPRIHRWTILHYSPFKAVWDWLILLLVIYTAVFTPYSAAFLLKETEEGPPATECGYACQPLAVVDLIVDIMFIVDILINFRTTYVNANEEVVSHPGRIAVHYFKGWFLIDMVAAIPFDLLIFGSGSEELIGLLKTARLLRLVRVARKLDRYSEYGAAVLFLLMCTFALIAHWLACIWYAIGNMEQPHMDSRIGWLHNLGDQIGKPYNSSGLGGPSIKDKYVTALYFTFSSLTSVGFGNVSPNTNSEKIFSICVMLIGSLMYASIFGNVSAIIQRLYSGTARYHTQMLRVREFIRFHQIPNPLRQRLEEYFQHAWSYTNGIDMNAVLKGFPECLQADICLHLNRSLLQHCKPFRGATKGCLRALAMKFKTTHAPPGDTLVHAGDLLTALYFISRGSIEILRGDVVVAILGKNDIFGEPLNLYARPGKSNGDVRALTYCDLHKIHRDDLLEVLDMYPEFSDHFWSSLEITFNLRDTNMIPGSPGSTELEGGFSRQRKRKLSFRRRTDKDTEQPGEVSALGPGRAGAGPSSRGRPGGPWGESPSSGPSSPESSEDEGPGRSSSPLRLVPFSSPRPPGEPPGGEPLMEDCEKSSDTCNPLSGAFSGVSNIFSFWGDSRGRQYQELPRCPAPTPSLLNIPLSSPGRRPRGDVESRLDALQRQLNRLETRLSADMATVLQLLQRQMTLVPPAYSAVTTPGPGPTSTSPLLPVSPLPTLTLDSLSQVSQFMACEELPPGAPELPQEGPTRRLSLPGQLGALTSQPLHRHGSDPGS

O=C1NC(=O)C(Cc2ccc(OCCC3CCN(C(=O)OCc4cc(Cl)cc(Cl)c4)CC3)cc2)S1 (centres unmarked) [EL244, 3,5-dichlorobenzyl 4-(2-(4-((2,4-dioxothiazolidin-5-yl)methyl)phenoxy)ethyl)piperidine-1-carboxylate]
IC50 (hERG): > 25 µM
inhibition at 25 μM (hERG; human, 25 μΜ): ~12%
TGF-β-induced mitochondrial activation (NHLFs [1]): reduced TGF-β-induced mitochondrial activation
Adipogenesis (oil red O lipid droplets) (3T3-L1; 1 or 10 μM with insulin, compared with IBMX/DEX): promoted adipogenesis dose responsively
Expression of PPARγ target genes (Adipoq, Fabp4, CD36) and PPARγ (3T3-L1; RT-qPCR): induced the expression of several PPARγ target genes
Col1a1 and Acta2 (aSMA) mRNA and protein (NHLFs [2]): suppressed
PPARγ target genes and PPARγ expression (NHLFs [2]): stimulating the expression of PPARγ target genes
Liver toxicity (ALT/AST levels) (liver): did not cause any appreciable toxicity in the liver
